Tests used:
DENV-2 NGC [1] = type: cell-based, dengue virus
YFV-17D [2] = type: cell-based, yellow fever virus
dengue reporter virus = type: cell-based
YFV-17D [3] = type: cell-based, yellow fever virus; remark: listed apart in the source
DENV subgenomic replicon = assay: DENV replicon system; type: cell-based, dengue virus; details: BHK-Rep-Pac-LUC cells, luciferase at 72 hours
DiD-labeled DENV = assay: Fusion assay with DiD-labeled DENV; type: cell-based, dengue virus; details: BS-C-1 cells; for membrane fusion activity of DENV, reference controls: NH4Cl 50 mM, chlorpromazine 60 µM
[4] = system: uninfected host cell cultures; assay: Cell counting with a Coulter Counter; type: cell-based; details: 50 and 100 µM, cells counted with a Coulter Counter
DENV-2 = assay: Virucidal assay; details: 50 µM, 1 h, 37°C, with or without RNase A
DENV-2 NGC [5] = assay: CPE-reduction assay; details: 25 and 12.5 µM, Vero-B cells, day 8 p.i.

CC(C)(C)OC(=O)NC1C(=O)NC2Cc3ccc(c(Cl)c3)Oc3cc4cc(c3O)Oc3ccc(cc3Cl)C(O)C3NC(=O)C(NC(=O)C4NC(=O)C(NC2=O)c2cc(O)cc(c2)Oc2cc1ccc2O)c1ccc(O)c(c1)-c1c(O)cc(O)cc1C(C(=O)NC1C2CC4CC(C2)CC1C4)NC3=O (centres unmarked) [LCTA-949]
DENV E protein expression (DENV-2 NGC [1]): completely inhibited
YFV NS1 protein expression (YFV-17D [2]): completely inhibited
inhibition of DENV infection (dengue reporter virus): failed to efficiently inhibit
inhibition of viral replication and viral antigen expression (dengue reporter virus): nearly complete inhibition
inhibition of viral replication (YFV-17D [3]): nearly complete inhibition
protective activity against YFV (YFV-17D [3]): most of the protective activity of LCTA-949 was already lost
replication of the DENV subgenomic replicon (DENV subgenomic replicon): did not inhibit
membrane fusion activity of DENV (DiD-labeled DENV; 20 min p.i. at 37°C, 6.25-25.0 µM): markedly impaired
cytostatic effects [4]: some cytostatic effects
cytotoxicity (Vero-B cells): did not prove cytotoxic
viability of uninfected host cell cultures (Vero-B cells): did not reduce viability
CC50 (Vero-B cells; green monkey): > 100 µM
cytotoxic effects (P388D1 cells): No cytotoxic effects
direct virucidal activity (DENV-2): does not destroy the viral particle
DENV-2-induced CPE formation (DENV-2 NGC [5]): completely inhibited

Cl.N [ammonium chloride]
membrane fusion activity of DENV, reference controls (DiD-labeled DENV): efficiently reduced

CN(C)CCCN1c2ccccc2Sc2ccc(Cl)cc21 [chlorpromazine]
membrane fusion activity of DENV, reference controls (DiD-labeled DENV): efficiently reduced

From PMC3356272, “An Analogue of the Antibiotic Teicoplanin Prevents Flavivirus Entry In Vitro” (PLoS ONE, 2012)
